Where “and” joins values, the source holds several entries; their conditions need not be identical. Identical values can stand only once.
What was measured:
[1] = 25° C.; cited from earlier work
[2] = HPLC analysis of ASA solutions for hydrolysis to salicylic acid (stability on storage); type: physicochemical
Description: (§1) A 10 μl solution of this formulation is tested using the following HPLC procedure for analysis. A constant-flow pump, Thermo-Finnigan Spectra-System P2000 was used to deliver eluent solvent at a rate of 1 ml/min to a column, Luna, 5μ, C8(2), 100 A, […] (Phenomenex, Calif.). The eluent solvent system was NaH2PO4 (0.025 M): Na2HPO4 (0.25 M): MeOH (25:25:50 V/V) pH adjusted to 3.2 with either phosphoric acid or concentrated HCL. Methanolic solutions of aspirin and salicylic acid 10 μl (concentration of 1 mg/ml) were injected onto the column. The eluted compounds were detected using a Spectra 200 programmable UV wavelength detector and Thermo-Finnigan Chrome Jet integrator. The wavelength of detector was either […]. Under these conditions, retention times for aspirin and hydrolysis product, salicylic acid was approximately 1.75 minutes and 3.34 minutes respectively. […]

[3] = Solution compatibility: NNDMA solution of ASA diluted with diluents, HPLC; type: physicochemical; conditions: for Assay of Compounds: Aspirin / Assay of Compounds: Salicylic Acid: ASA in NNDMA diluted with D5W, RT
Description: In another series of experiments, 1 ml of the solution containing only NNDMA (Table 3) was diluted with 100 ml of diluents such as 1. distilled H2O, 2. Ringers lactate solution, 3. D5W and 4. normal saline and then the pH of these solutions were adjusted to 6.5 with 1 N NaOH. […] After 12 hours of storage, however, the hydrolysis of ASA was observed (up to 5% within 24 hours). […] One skilled in the art will recognize that modifications may be made in the persent invention without deviating from the spirit or scope of this invention which is illustrated further by the specific examples of dissolution attempts described herein and these examples are not to be construed as limiting the scope of this invention.
as §1

[4] = a. H2O (2.0 ml), 1-Propanol (0.5 ml), Tween 20 (0.5 ml), within 1 hr
[5] = aspirin dissolved in water (2 ml), upon mixing (FIG. 1)
[6] = glycerin (1 ml), 1-propanol (3 ml), Tween 80 (0.2 ml), upon mixing (FIG. 2)
[7] = 1 ml NNDMA solution diluted in D5W, after 12 hours (FIG. 6)

SMILES: CC(=O)Oc1ccccc1C(=O)O [ASA, aspirin]
- solubility in water [1]: poor solubility
- Purity of ASA in solution ([2]; 1. N,N-Dimethylacetamide (NNDMA)): >99%
- Purity of ASA in solution ([2]; 2. NNDMA, Glycerol (0.1 in 10 ml), Tween 20 (0.1 in 10 ml)): Purity >99%
- Purity of ASA in solution ([2]; 3. NNDMA, Glycerol (0.1 in 10 ml), Tween 40 (0.1 in 10 ml)): Purity >99%
- Purity of ASA in solution ([2]; 4. NNDMA, Glycerol (0.1 in 10 ml), Tween 60 (0.1 in 10 ml)): Purity >99%
- Purity of ASA in solution ([2]; 5. NNDMA, Glycerol (0.1 in 10 ml), Tween 80 (0.1 in 10 ml)): Purity >99%
- Purity of ASA in solution ([2]; 6. NNDMA, Glycerol (0.1 in 10 ml)): Purity >99%
- Purity of ASA in solution ([2]; 7. NNDMA, Glycerol (0.1 in 10 ml), DMSO (1-2%)): Purity >99%
- Purity of ASA in solution ([2]; 8. NNDMA, DMSO (1.2%)): Purity >99%
- Aspirin (HPLC purity) ([2]; ASA in NNDMA, 40° C., 6 months): 97.5% and 97.9%-98.6%
- Aspirin (HPLC purity) ([2]; ASA in NNDMA, 40° C., 6 months, listed as aspirin): 98%
- Aspirin (HPLC purity) ([2]; ASA in NNDMA, RT, 6 months): 99.4%
- Salicylic Acid / hydrolysis product ([2]; ASA in NNDMA, RT, 6 months): 0.3%
- stability of solution of ASA in NNDMA ([2]; Example 1: 1.0 gm of aspirin in 2 mL NNDMA): stable and resists hydrolysis
- solution stability on pH adjustment ([2]; NNDMA solutions of Table 3, pH adjusted in the range of 1.5-6.0): without changing solution stability
- aspirin purity (HPLC) ([2]; NNDMA, glycerol and Tween 20, RT, 6 months (FIG. 5)): 99%
- HPLC Results: aspirin [2, 4]: ~95% aspirin
- HPLC Results: salicylic acid [2, 4]: ~5%
- amount of aspirin present ([2]; all 8 NNDMA solutions of Table 3, room temperature, 6 months): greater than 98%
- hydrolysis on storage ([2]; all 8 NNDMA solutions of Table 3, stored at room temperature): no significant amount of hydrolysis could be detected
- aspirin, HPLC peak 1 area [2, 5]: 95.4%
- hydrolysis product, HPLC peak 2 [2, 5]: 4.9%
- HPLC Results: salicylic acid ([2]; b. H2O (2.0 ml), 1-Propanol (0.5 ml), Tween 40, within 1 hr): ~5%
- HPLC Results: salicylic acid ([2]; c. H2O (2.0 ml), 1-Propanol (0.5 ml), Tween 60, within 1 hr): ~5%
- HPLC Results: salicylic acid ([2]; d. H2O (2.0 ml), 1-Propanol (0.5 ml), Tween 80, within 1 hr): ~5%
- HPLC Results: salicylic acid ([2]; e. H2O (2.0 ml), 1-Propanol (0.5 ml), PEG 300, within 1 hr): ~5%
- HPLC Results: salicylic acid ([2]; f. H2O (2.0 ml), 1-Propanol (0.5 ml), PEG 400, within 1 hr): ~5%
- HPLC Results: salicylic acid ([2]; g. H2O (2.0 ml), 1-Propanol (0.5 ml), PEG 600, within 1 hr): ~5%
- aspirin, HPLC peak 1 [2, 6]: 94.3%
- hydrolysis product, HPLC peak 2 [2, 6]: 5.7%
- HPLC Results: salicylic acid ([2]; h. H2O (2.0 ml), 1-Propanol (0.5 ml), Glycerol, within 1 hr): ~5%
- HPLC Results: salicylic acid ([2]; i. H2O (2 ml), +DMSO (1-2%), Tween 20, within 1 hr): ~5%
- HPLC Results: salicylic acid ([2]; j. H2O (2 ml), +DMSO (1-2%), Tween 40, within 1 hr): ~5%
- HPLC Results: salicylic acid ([2]; k. H2O (2 ml), +DMSO (1-2%), Tween 60, within 1 hr): ~5%
- HPLC Results: salicylic acid ([2]; l. H2O (2 ml), +DMSO (1-2%), Tween 80, within 1 hr): ~5%
- HPLC Results: salicylic acid ([2]; m. Glycerine (1 ml), 1-Propanol (3 ml), Tween 80 (0.2 ml), within 1 hr): ~5%
- HPLC Results: salicylic acid ([2]; n. Glycerine (1 ml), 1,2 propanediol (3 ml), Tween 80 (0.2 ml), within 1 hr): ~5%
- HPLC Results: salicylic acid ([2]; o. Glycerine (1 ml), PEG 300 (3 ml), Tween 80 (0.2 ml), within 1 hr): ~5%
- HPLC Results: salicylic acid ([2]; p. Glycerine (1 ml), PEG 400 (3 ml), Tween 80 (0.2 ml), within 1 hr): ~5%
- HPLC Results: salicylic acid ([2]; q. Glycerine (1 ml), PEG 600 (3 ml), Tween 80 (0.2 ml), within 1 hr): ~5%
- stability of clear solutions in NNDMA on storage ([2]; room temperature and 40° C., 6 months): without the formation of turbidity or a precipitate and without significant hydrolysis of aspirin
- salicylic acid (hydrolysis product) in solutions of ASA ([2]; the 17 solvent systems of Table 2, within one hour, aspirin 50-75 mg/ml, pH 1.5 to 6.8): ≥ 5%
- stability in N,N-dimethylacetamide ([2]; up to 500 mg/ml, stored at 40° C. for up to 6 months): without undergoing significant hydrolysis
- HPLC peak 2 [3, 7]: 0.3%
- HPLC peak 3 [3, 7]: 0.4%
- aspirin purity, HPLC peak 1 ([3]; 1 ml NNDMA solution diluted in distilled water and glucose (D5W), after 12 hours (FIG. 6)): 95% and 94.8%
- appearance of diluted solutions ([3]; 1 ml NNDMA solution in 100 ml distilled H2O, Ringers lactate, D5W or normal saline, pH 6.5, after several days): remained clear
- hydrolysis of ASA ([3]; 1 ml NNDMA solution in 100 ml distilled H2O, Ringers lactate, D5W or normal saline, pH 6.5, up to 12 hours of storage): < 1%
- hydrolysis of ASA ([3]; 1 ml NNDMA solution in 100 ml distilled H2O, Ringers lactate, D5W or normal saline, pH 6.5, within 24 hours): up to 5%
- Assay of Compounds: Aspirin ([3]; up to 12 hours): >99%
- Assay of Compounds: Salicylic Acid ([3]; up to 12 hours): <1%
- Assay of Compounds: Aspirin ([3]; up to 24 hours): 94.7-95.3%
- Assay of Compounds: Salicylic Acid ([3]; up to 24 hours): Max. ~6%

Source: patent US8481600B2, “Formulation of aspirin that is stable and showing minimal hydrolysis for parenteral administration for the treatment of cardiovascular and other disease states” (Academic Pharmaceuticals, Inc., priority 2007, dated 2013)
